Assay results reported in ChEMBL document CHEMBL5608259 (J Med Chem, 2024).
Active and inactive are the calls of the source. No cut-off for these calls is given here.

Experiments:
[1] = biological target: T1, Protein arginine N-methyltransferase 3 (Homo sapiens, UniProt O60678); assay: Inhibition of human PRMT3 using H4-21peptide as substrate at 10 uM incubated for 10 mins by fluorescence based analysis relative to control
Target sequence in this assay (O60678 2-531 limits assumed): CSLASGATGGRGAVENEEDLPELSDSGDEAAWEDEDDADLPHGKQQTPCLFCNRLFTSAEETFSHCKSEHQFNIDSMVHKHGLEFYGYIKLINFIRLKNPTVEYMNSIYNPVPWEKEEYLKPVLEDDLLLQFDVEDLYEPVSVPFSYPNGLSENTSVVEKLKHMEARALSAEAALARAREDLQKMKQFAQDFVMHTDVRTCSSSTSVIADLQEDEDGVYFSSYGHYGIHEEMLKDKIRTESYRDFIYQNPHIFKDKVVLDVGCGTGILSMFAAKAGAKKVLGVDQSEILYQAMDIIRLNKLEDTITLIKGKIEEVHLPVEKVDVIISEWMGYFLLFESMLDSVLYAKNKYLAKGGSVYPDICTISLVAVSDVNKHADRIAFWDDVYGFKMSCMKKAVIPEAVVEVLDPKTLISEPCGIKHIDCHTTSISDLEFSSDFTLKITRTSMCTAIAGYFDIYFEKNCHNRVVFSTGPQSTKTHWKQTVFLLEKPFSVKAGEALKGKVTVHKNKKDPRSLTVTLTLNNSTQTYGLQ

[2] = biological target: T2, Protein arginine N-methyltransferase 8 (Homo sapiens, UniProt Q9NR22); assay: Inhibition of human PRMT8 using Histone H4 as substrate and SAM as cofactor at 10 uM by radiometric HotSpot assay relative to control
Target sequence in this assay (Q9NR22 2-394 limits assumed): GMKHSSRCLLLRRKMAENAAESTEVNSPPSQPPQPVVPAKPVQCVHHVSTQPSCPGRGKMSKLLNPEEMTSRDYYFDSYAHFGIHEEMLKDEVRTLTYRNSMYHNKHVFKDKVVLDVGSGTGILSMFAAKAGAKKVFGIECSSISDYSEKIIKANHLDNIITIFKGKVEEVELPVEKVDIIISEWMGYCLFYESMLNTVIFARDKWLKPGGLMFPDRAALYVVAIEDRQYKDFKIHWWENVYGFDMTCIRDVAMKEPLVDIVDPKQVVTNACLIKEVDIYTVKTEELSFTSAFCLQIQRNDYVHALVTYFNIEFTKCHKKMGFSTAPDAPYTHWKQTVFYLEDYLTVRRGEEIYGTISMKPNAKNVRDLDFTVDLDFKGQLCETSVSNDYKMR

[3] = biological target: T3, Histone-arginine methyltransferase CARM1 (Homo sapiens, UniProt Q86X55); assay: Inhibition of human PRMT4 using histone H3 as substrate and SAM as cofactor by radiometric HotSpot assay
T3 sequence (Q86X55 whole entry): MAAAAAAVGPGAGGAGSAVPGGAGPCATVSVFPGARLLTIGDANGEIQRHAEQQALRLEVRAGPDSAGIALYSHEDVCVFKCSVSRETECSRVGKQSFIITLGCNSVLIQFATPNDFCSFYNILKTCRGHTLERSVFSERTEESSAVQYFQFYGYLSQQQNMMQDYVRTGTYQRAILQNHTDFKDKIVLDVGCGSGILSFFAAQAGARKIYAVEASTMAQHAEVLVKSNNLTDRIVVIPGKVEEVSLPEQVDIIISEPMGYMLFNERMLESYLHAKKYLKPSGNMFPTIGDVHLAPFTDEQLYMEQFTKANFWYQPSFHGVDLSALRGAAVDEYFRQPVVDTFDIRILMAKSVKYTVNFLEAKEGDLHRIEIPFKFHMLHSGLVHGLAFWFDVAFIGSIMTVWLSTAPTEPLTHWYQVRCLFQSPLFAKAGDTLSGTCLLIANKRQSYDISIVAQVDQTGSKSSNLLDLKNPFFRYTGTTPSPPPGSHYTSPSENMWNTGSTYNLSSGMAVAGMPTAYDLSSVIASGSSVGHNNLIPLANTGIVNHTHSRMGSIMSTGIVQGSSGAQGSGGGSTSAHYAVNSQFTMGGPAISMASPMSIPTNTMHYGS

[4] = biological target: T4, Protein arginine N-methyltransferase 6 (Homo sapiens, UniProt Q96LA8); assay: Inhibition of human PRMT6 using GST-GAR as substrate and SAM as cofactor at 10 uM by radiometric HotSpot assay relative to control
Target sequence in this assay (Q96LA8 whole entry, looked up): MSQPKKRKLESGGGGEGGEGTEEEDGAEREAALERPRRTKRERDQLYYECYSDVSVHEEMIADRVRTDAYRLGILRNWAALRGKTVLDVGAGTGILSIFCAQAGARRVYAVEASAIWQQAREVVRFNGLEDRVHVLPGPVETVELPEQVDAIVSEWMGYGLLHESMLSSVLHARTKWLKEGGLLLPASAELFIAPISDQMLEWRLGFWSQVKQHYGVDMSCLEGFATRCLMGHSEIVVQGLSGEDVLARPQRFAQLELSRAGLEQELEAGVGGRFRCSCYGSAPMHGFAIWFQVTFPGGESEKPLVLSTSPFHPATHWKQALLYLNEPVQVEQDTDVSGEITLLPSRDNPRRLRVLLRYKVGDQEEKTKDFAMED

[5] = biological target: T5, Histone-arginine methyltransferase CARM1 (Homo sapiens) (UniProt Q86X55); assay: Inhibition of human PRMT4 using histone H3 as substrate and SAM as cofactor at 10 uM by radiometric HotSpot assay relative to control
T5 sequence (whole entry): T3 sequence (Q86X55 whole entry)

[6] = Permeability of the compound by PAMPA method; format: ADME; settings: read-out: permeability
[7] = biological target: PRMT5/MEP50 complex (Homo sapiens) (UniProt O14744+Q9BQA1); assay: Inhibition of human PRMT5/MEP50 using Histone H2 as substrate and SAM as cofactor at 10 uM by radiometric HotSpot assay relative to control; format: protein-complex assay
MDA-MB-231 = assay: Inhibition of colony formation in human MDA-MB-231 cells at 10 uM incubated for 2 weeks by crystal violet staining based analysis relative to control; format: functional; settings: MDA-MB-231, 336 h
[8] = biological target: T6, Protein arginine N-methyltransferase 7 (Homo sapiens, UniProt Q9NVM4); assay: Inhibition of human PRMT7 using GST-GAR as substrate and SAM as cofactor by radiometric HotSpot assay
T6 sequence (Q9NVM4 whole entry): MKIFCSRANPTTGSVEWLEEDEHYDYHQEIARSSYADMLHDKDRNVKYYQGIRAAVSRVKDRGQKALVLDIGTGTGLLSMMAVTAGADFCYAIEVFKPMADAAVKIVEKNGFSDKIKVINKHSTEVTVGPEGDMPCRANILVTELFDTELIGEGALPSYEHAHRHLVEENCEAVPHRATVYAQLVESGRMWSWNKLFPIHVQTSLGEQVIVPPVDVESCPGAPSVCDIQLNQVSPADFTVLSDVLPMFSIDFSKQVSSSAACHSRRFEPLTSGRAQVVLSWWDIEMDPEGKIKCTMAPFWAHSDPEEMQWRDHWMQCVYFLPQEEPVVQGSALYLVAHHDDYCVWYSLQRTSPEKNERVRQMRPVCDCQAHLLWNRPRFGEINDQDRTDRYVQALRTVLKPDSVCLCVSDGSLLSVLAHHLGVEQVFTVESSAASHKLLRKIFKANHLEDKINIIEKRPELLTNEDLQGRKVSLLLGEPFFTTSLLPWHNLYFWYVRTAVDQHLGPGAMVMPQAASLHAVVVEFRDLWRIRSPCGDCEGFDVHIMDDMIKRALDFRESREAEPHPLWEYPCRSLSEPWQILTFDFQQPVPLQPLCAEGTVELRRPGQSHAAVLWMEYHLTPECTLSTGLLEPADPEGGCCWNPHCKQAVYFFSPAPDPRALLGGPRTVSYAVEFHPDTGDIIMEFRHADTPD

[9] = biological target: T1, Protein arginine N-methyltransferase 3; assay: Inhibition of human PRMT3 using Histone H3 as substrate and SAM as cofactor by radiometric HotSpot assay
Target sequence in this assay (O60678 whole entry): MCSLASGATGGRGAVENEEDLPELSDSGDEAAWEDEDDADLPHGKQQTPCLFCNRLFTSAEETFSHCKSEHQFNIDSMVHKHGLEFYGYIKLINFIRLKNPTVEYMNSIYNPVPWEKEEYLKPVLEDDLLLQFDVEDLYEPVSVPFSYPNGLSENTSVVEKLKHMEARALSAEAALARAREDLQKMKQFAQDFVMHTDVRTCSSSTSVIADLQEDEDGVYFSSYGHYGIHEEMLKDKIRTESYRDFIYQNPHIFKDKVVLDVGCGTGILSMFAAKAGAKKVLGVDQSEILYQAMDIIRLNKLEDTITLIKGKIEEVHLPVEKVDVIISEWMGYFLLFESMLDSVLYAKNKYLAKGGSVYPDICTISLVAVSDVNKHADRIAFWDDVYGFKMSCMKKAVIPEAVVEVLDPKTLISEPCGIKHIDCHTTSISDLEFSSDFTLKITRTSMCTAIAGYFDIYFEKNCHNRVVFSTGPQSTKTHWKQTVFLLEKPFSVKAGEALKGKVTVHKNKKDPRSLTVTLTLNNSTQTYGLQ

PRMT5/MEP50 complex = PRMT5/MEP50 complex (Homo sapiens, UniProt O14744); assay: Inhibition of human PRMT5/MEP50 using Histone H2 as substrate and SAM as cofactor by radiometric HotSpot assay; format: protein-complex assay
Sequence of PRMT5/MEP50 complex (O14744 whole entry): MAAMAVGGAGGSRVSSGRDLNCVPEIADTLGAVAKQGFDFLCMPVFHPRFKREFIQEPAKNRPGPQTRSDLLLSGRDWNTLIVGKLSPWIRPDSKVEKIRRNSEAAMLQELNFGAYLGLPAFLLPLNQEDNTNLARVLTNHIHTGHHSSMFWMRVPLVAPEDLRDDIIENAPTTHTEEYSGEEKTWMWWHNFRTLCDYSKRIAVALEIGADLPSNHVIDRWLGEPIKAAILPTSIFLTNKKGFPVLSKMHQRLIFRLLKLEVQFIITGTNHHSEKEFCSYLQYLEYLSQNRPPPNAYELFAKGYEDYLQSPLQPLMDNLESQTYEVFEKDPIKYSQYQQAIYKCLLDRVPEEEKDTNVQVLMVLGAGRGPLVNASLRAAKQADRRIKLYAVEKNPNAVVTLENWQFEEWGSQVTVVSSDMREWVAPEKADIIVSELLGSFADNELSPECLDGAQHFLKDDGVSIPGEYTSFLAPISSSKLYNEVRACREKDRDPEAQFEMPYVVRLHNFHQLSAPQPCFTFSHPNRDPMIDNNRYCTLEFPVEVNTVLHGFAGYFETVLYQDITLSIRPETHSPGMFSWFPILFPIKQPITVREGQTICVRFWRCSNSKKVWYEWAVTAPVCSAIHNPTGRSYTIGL
Sequence of PRMT5/MEP50 complex (Q9BQA1 whole entry, further chain): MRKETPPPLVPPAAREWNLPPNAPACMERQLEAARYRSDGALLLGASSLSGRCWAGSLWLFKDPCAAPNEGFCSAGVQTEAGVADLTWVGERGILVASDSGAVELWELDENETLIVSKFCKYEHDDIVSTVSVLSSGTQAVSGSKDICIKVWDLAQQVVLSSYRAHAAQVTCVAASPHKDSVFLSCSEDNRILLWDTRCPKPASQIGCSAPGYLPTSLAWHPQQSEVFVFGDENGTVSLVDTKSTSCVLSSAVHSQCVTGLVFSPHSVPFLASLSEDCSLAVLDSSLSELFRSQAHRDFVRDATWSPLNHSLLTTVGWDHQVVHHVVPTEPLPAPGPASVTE

[10] = biological target: T7, Protein arginine N-methyltransferase 1 (Homo sapiens, UniProt Q99873); assay: Inhibition of human PRMT1 using Histone H4 as substrate and SAM as cofactor by radiometric HotSpot assay
Target sequence in this assay (Q99873 whole entry): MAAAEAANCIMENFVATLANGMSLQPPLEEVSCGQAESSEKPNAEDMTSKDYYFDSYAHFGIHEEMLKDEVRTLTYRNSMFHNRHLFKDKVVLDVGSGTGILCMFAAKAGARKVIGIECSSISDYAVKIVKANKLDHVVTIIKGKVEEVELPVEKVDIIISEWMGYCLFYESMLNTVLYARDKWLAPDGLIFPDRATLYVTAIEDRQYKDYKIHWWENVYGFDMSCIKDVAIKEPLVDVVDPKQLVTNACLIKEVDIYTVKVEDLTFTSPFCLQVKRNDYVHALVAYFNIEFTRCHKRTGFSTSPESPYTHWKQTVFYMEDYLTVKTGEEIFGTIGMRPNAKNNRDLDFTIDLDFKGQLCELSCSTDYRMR

[11] = biological target: T2, Protein arginine N-methyltransferase 8; assay: Inhibition of human PRMT8 using Histone H4 as substrate and SAM as cofactor by radiometric HotSpot assay
Target sequence in this assay (Q9NR22 whole entry): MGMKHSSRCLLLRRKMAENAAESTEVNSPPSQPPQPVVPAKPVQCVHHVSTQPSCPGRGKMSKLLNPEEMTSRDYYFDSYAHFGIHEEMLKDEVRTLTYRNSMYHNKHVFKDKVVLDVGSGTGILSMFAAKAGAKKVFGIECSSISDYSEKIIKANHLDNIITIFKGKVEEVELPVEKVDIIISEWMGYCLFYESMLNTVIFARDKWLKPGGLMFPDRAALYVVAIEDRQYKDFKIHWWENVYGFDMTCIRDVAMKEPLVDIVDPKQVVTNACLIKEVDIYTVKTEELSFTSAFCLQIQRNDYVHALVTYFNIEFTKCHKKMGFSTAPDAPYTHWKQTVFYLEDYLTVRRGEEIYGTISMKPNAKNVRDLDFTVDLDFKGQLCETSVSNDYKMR

[12] = biological target: T4, Protein arginine N-methyltransferase 6; assay: Inhibition of PRMT6 (unknown origin)
Target sequence in this assay (Q96LA8 whole entry): as the sequence (Q96LA8 whole entry, looked up) above

[13] = biological target: T7, Protein arginine N-methyltransferase 1; assay: Inhibition of human PRMT1 using H4-21peptide as substrate at 10 uM incubated for 10 mins by fluorescence based analysis relative to control
Target sequence in this assay (Q99873 whole entry, looked up): as the sequence (Q99873 whole entry) above

4T1.2 [14] = assay: Antitumor activity against mouse 4T1.2 cells xenografted in Balb/c mouse assessed as inhibition of tumor growth at 50 mg/kg, ip measured after 4 weeks by caliper method; format: functional, organism-based
[15] = biological target: T3, Histone-arginine methyltransferase CARM1; assay: Inhibition of PRMT4 in human MDA-MB-231 cells assessed as decrease in PABP1 methylation level incubated for 48 hrs by Western blot analysis; format: cell-based
[16] = biological target: T3, Histone-arginine methyltransferase CARM1; assay: Inhibition of PRMT4 in human MDA-MB-231 cells assessed as decrease in BAF155 methylation level incubated for 48 hrs by Western blot analysis; format: cell-based
4T1.2 [17] = assay: In vivo inhibition of PRMT4 in mouse 4T1.2 cells xenografted in Balb/c mouse assessed as decrease in BAF155 methylation level at 50 mg/kg, ip by immunoblot analysis; format: functional, organism-based
[18] = biological target: T5, Histone-arginine methyltransferase CARM1 (Homo sapiens); assay: Inhibition of PRMT4 in human MDA-MB-231 cells assessed as inhibition of BAF155 methylation at 10 uM by Western blot analysis; format: cell-based; settings: time 1-48 hrs
[19] = biological target: T3, Histone-arginine methyltransferase CARM1; assay: Inhibition of PRMT4 in human MDA-MB-231 cells assessed as decrease in BAF155 methylation level incubated for 24 hrs by Western blot analysis; format: cell-based
[20] = Drug recovery in mouse plasma at 5 uM measured after 5 hrs by LC-MS/MS analysis; format: ADME, cell-free; settings: read-out: Drug recovery
[21] = Toxicity in Balb/c mouse assessed as effect on body weight at 50 mg/kg, ip measured after 4 weeks; format: organism-based; settings: in vivo, 672 h
[22] = biological target: T5, Histone-arginine methyltransferase CARM1 (Homo sapiens); assay: Inhibition of PRMT4 in human MDA-MB-231 cells assessed as inhibition of PABP1 methylation at 10 uM by Western blot analysis; format: cell-based
[23] = biological target: T5, Histone-arginine methyltransferase CARM1 (Homo sapiens); assay: Inhibition of PRMT4 in human MDA-MB-231 cells assessed as decrease in BAF155 methylation level incubated for 24 to 48 hrs by Western blot analysis; format: cell-based; settings: dose 0.01-20 µM, time 24-48 hrs
[24] = Prodrug release in human MDA-MB-231 cells assessed as (2R,3R,4S,5S)-2-(6-amino-9H-purin-9-yl)-5-(((2-((3-bromobenzyl)amino)ethyl)thio)methyl)tetrahydrofuran-3,4-diol formation at 4.5 uM measured after 30 mins by LC-MS analysis; format: ADME, cell-based; settings: mda-mb-231, 0.5 h
[25] = biological target: T3, Histone-arginine methyltransferase CARM1; assay: Inhibition of PRMT4 in human MDA-MB-231 cells assessed as decrease in PABP1 methylation level incubated for 24 hrs by Western blot analysis; format: cell-based
[26] = biological target: T5, Histone-arginine methyltransferase CARM1 (Homo sapiens); assay: Potency index, ratio of IC50 for EZM2302 to test compound IC50 for inhibition of PRMT4 in human MDA-MB-231 cells assessed as decrease in BAF155 methylation level incubated for 48 hrs by Western blot analysis; format: cell-based
[27] = biological target: T5, Histone-arginine methyltransferase CARM1 (Homo sapiens); assay: Potency index, ratio of IC50 for TP-064 to test compound IC50 for inhibition of PRMT4 in human MDA-MB-231 cells assessed as decrease in BAF155 methylation level incubated for 48 hrs by Western blot analysis; format: cell-based
[28] = Plasma protein binding in mouse at 5 uM measured after 5 hrs by LC-MS/MS analysis; format: ADME, cell-free; settings: read-out: PPB (converted)
[29] = biological target: T5, Histone-arginine methyltransferase CARM1 (Homo sapiens); assay: Inhibition of PRMT4 in human MDA-MB-231 cells assessed as decrease in PABP1 methylation level incubated for 24 to 48 hrs by Western blot analysis; format: cell-based; settings: dose 0.01-20 µM, time 24-48 hrs

Row | SMILES | inhibition [1] [%] | inhibition [2] [%] | IC50 [3] [nM] | inhibition [4] | inhibition [5] | inhibition [13] | other results
1 | Nc1ncnc2c1ncn2[C@@H]1O[C@H](CSCCNCc2cccc(-c3ccoc3)c2)[C@@H](O)[C@H]1O | < 30 | > 50 | 1.2 | 50% | > 90% | – | –
2 | Nc1ncnc2c1ncn2[C@@H]1O[C@H](CSCCNCc2cccc(Br)c2)[C@@H](O)[C@H]1O | – | > 50 | – | 50% | – | – | Papp [6]: 0.3 ×10⁻⁶ cm/s; inhibition [7]: 75%
3 | CNC[C@@H](O)COc1ccc(Cl)c(-c2nc(-c3c(C)noc3C)c(C)c(N3CC4(CCN(C(=O)OC)CC4)C3)n2)c1 | – | – | – | – | – | – | inhibition at 10 µM (MDA-MB-231): 30%
4 | Nc1ncnc2c1ncn2[C@@H]1O[C@H](CSCCNCc2cccc(-c3cncnc3)c2)[C@@H](O)[C@H]1O | < 30 | > 50 | 9.3 | 50% | > 90% | – | –
5 | N=C(N)NCCC[C@H](N)C(=O)NCC(=O)N[C@@H](CCCN)C(=O)N[C@@H](CCCNC(=N)NCCCSC[C@H]1O[C@@H](n2cnc3c(N)ncnc32)[C@H](O)[C@@H]1O)C(=O)O | – | – | 2.8 | – | – | – | IC50 [8]: 8300 nM; IC50 [9]: > 10000 nM; IC50 (PRMT5/MEP50 complex): 0.42 nM; IC50 [10]: 5900 nM; IC50 [11]: > 10000 nM
6 | N=C(NCCSC[C@H]1O[C@@H](n2cnc3c(N)ncnc32)[C@H](O)[C@@H]1O)Nc1ccccc1 | – | > 95 | – | > 90% | – | > 50% | IC50 [12]: > 10000 nM; IC50 [8]: 2400 nM; IC50 [9]: 321 nM; IC50 (PRMT5/MEP50 complex): 351 nM; IC50 [10]: > 10000 nM; IC50 [11]: > 10000 nM
7 | Nc1ncnc2c1ncn2[C@@H]1O[C@H](CSCCCNCc2cccc(-c3cncnc3)c2)[C@@H](O)[C@H]1O | < 30 | > 50 | 49 | 50% | > 90% | – | –
8 | N=C(NCCCSC[C@H]1O[C@@H](n2cnc3c(NCCCc4ccccc4)ncnc32)[C@H](O)[C@@H]1O)NCCCc1ccccc1 | < 30 | 70 | – | Active | Active | Active | –
9 | N=C(NCCCN)NCCCSC[C@H]1O[C@@H](n2cnc3c(NCCCc4ccccc4)ncnc32)[C@H](O)[C@@H]1O | < 30 | 70 | – | Active | Active | Active | –
10 | Nc1ccc(-c2ccc(CNC(=O)NCCSC[C@H]3O[C@@H](n4cnc5c(N)ncnc54)[C@H](O)[C@@H]3O)cc2)cc1 | 3 | < 30 | – | 70% | 27% | < 50% | –
11 | Nc1ncnc2c1ncn2[C@@H]1O[C@H](CSCCNC(=O)NCc2ccccc2)[C@@H](O)[C@H]1O | > 50 | < 30 | – | 70% | > 90% | < 50% | –
12 | CNCCN1CCC(c2cc(CN(C)C(=O)c3cccc(Oc4ccccc4)c3)ccn2)CC1 | – | – | – | – | – | – | inhibition at 10 µM (MDA-MB-231): 30%
13 | CC1=C(C)C(=O)C(C(C)(C)CC(=O)N(CCSC[C@H]2O[C@@H](n3cnc4c(N)ncnc43)[C@H](O)[C@@H]2O)Cc2cccc(Br)c2)=C(C)C1=O | – | – | – | – | – | – | inhibition (4T1.2 [14]): Active; IC50 [15]: 23.1 nM; IC50 [16]: 42.3 nM; inhibition (4T1.2 [17]): Active; inhibition [18]: Dose-Dependent Effect; IC50 [19]: 343 nM; remaining at 5 h, 5 µM [20]: 90.8%; Activity [21]: Non-Toxic; inhibition [22]: Dose-Dependent Effect; inhibition [23]: Dose-Dependent Effect; Drug metabolism [24]: Metabolite_Detected; IC50 [25]: 30.6 nM; inhibition at 10 µM (MDA-MB-231): 100%; Ratio IC50 [26]: 2; Ratio IC50 [27]: 2; fraction unbound at 5 h, 5 µM [28]: 0.004; inhibition [29]: Dose-Dependent Effect
